pEC50: −log10 of the molar value.
Experiments:
[1] = tested on: epithelium of intact trachea; assay: Transepithelial potential difference (Vt) and impedance (Rt) of intact perfused trachea in vitro; design: species or system Hartley guinea pigs; settings: for effect on transepithelial impedance (Rt) / effect on transepithelial potential difference (Vt): intact guinea pig tracheal segment, each agent tested four times; for effect on transepithelial impedance (Rt): current pulses 20 μA; for effect on transepithelial impedance (Rt) / effect on Vt, summary of bar graphs (on average): agent concentration and bath as in Tables 1 and 2; for effect on transepithelial potential difference (Vt): open-circuit, 37° C., agent concentration and bath (intraluminal/extraluminal) as in Tables 1 and 2; for effect on Vt, summary of bar graphs (on average): means of four preparations
Description: Under open circuit conditions, the first current electrode 60 (FIG. 1) introduces an electrical current into the perfusion liquid flowing into the perfusion device 12. The electrical current flows into the perfusion device, where it emanates from the inlet portion 64 (FIG. 7) and flows across the trachea wall to the second current electrode 62. The first voltage-sensing electrode 56 (FIG. 1) is in electrically continuity with the perfusion liquid in the trachea 14 (via cannula 78, tube 100, and conduits 38 and 46) and therefore senses the electrical potential inside the trachea. The second voltage-sensing electrode 58 senses the electrical potential in the extraluminal bath 54 outside of the trachea. The amplifier 18 calculates the electrical potential difference between the voltage-sensing electrodes 56, 58, which represents the transepithelial potential difference of the trachea. The amplifier 18 can also calculate the transepithelial impedance across the trachea wall based on the applied current and the measured potential difference. […] Hartley guinea pigs were anesthetized by i.p. injection of sodium pentobarbital (65 mg/kg). A 4.2-cm tracheal segment was removed and mounted on a perfusion device 12 at its in situ length. The perfusion device was placed in an extraluminal bath containing a modified Krebs-Henseleit […] solution, and was perfused at 24 ml/min with MKH solution from an intraluminal bath. Water was used as a heat transfer fluid and was supplied to the heat exchanger 20 and the outer jackets of vessels 26, 28 to maintain the temperature of the extraluminal and intraluminal baths at about 37° C. Current pulses (20 μA, 5 s duration, 50 s intervals) were delivered through the current electrodes, while the changes in the transepithelial potential difference (Vt) caused by the current pulses were monitored under open-circuit conditions. Alternatively, and as mentioned above, voltage pulses can be applied across the voltage electrodes under voltage-clamp conditions, while the changes in short circuit current are monitored. The preparation was equilibrated for 2.5 hours to allow Vt and the pressure drop (ΔP) to stabilize before the current pulses were delivered. Basal Vt (the transepithelial voltage in the basal, or steady, state of an unstimulated epithelium) was 14.8±0.8 mV. […] To determine the effects of relaxant agents, when the mechanical and bioelectric responses reached their plateau responses to MCh, the trachea was treated with agents added to the extraluminal or intraluminal bath. The agents used in this example are described in tables 1 and 2 below. The effects of the agents were analyzed statistically using student's paired t-test. P<0.05 was accepted as significant, and is indicated by an asterisk in FIGS. 8-15. The results are presented as means±SE. Each agent was tested four times. Amiloride, NPPB and bumetanide were dissolved in dimethyl sulfoxide (DMSO) (with a final concentration equal to or less than 0.04%). The other agents were prepared in MKH. Terbutaline, histamine, ouabain and bumetanide were added to the extraluminal bath; the other agents were added to the intraluminal bath. Hypersmolar solutions were prepared by adding osmolytes to MKH solution.

[2] = tested on: smooth muscle of intact trachea; assay: Pressure drop (ΔP) of perfusion liquid through intact trachea: smooth muscle contraction/relaxation; design: species or system Hartley guinea pigs; settings: for effect on differential pressure (ΔP), smooth muscle contraction or relaxation: intact guinea pig tracheal segment perfused at 24 ml/min, agent concentration and bath as in Tables 1 and 2, relaxation observed after pre-contraction with MCh
Description: As described above, the first port 50 of the differential pressure transducer 16 is in fluid communication with the openings 82 in the first cannula 78 and the second port 52 of the differential pressure transducer 16 is in fluid communication with the openings 88 in the second cannula 84. As a result, the differential pressure transducer 16 “sees” the pressure of the perfusion liquid flowing through the trachea 14 at the openings 82 and 88 and can calculate the pressure drop (ΔP) of the perfusion liquid between these two locations (as depicted in FIG. 7). […] Hartley guinea pigs were anesthetized by i.p. injection of sodium pentobarbital (65 mg/kg). A 4.2-cm tracheal segment was removed and mounted on a perfusion device 12 at its in situ length. The perfusion device was placed in an extraluminal bath containing a modified Krebs-Henseleit […] solution, and was perfused at 24 ml/min with MKH solution from an intraluminal bath. Water was used as a heat transfer fluid and was supplied to the heat exchanger 20 and the outer jackets of vessels 26, 28 to maintain the temperature of the extraluminal and intraluminal baths at about 37° C. Current pulses (20 μA, 5 s duration, 50 s intervals) were delivered through the current electrodes, while the changes in the transepithelial potential difference (Vt) caused by the current pulses were monitored under open-circuit conditions. Alternatively, and as mentioned above, voltage pulses can be applied across the voltage electrodes under voltage-clamp conditions, while the changes in short circuit current are monitored. The preparation was equilibrated for 2.5 hours to allow Vt and the pressure drop (ΔP) to stabilize before the current pulses were delivered. Basal Vt (the transepithelial voltage in the basal, or steady, state of an unstimulated epithelium) was 14.8±0.8 mV. […] To determine the effects of relaxant agents, when the mechanical and bioelectric responses reached their plateau responses to MCh, the trachea was treated with agents added to the extraluminal or intraluminal bath. The agents used in this example are described in tables 1 and 2 below. The effects of the agents were analyzed statistically using student's paired t-test. P<0.05 was accepted as significant, and is indicated by an asterisk in FIGS. 8-15. The results are presented as means±SE. Each agent was tested four times. Amiloride, NPPB and bumetanide were dissolved in dimethyl sulfoxide (DMSO) (with a final concentration equal to or less than 0.04%). The other agents were prepared in MKH. Terbutaline, histamine, ouabain and bumetanide were added to the extraluminal bath; the other agents were added to the intraluminal bath. Hypersmolar solutions were prepared by adding osmolytes to MKH solution.

| SMILES | effect on transepithelial impedance (Rt) [1] | effect on transepithelial potential difference (Vt) [1] | effect on differential pressure (ΔP), smooth muscle contraction or relaxation [2] | effect on Vt, summary of bar graphs (on average) [1] | effect on transepithelial potential (Vt) during pre-contraction ([1]; MCh 3×10^−7M in the extraluminal bath) | pEC50 ([2]; Cavia porcellus, methacholine in the extraluminal bath, read-out: EC50 for pre-contracting the trachea) |
| --- | --- | --- | --- | --- | --- | --- |
| CCCCNc1cc(C(=O)O)cc(S(N)(=O)=O)c1Oc1ccccc1 [Bumetanide] | did not effect Rt | depolarization | small degree of relaxation of the trachea |  |  |  |
| OC[C@@H](O)[C@@H](O)[C@H](O)[C@H](O)CO [D-M, D-mannitol] | increased Rt | depolarization | relaxation |  |  |  |
| NCCc1c[nH]cn1 [Histamine] | did not effect Rt | variable Vt responses | contraction | did not effect Vt appreciably |  |  |
| O=C(O)c1cc([N+](=O)[O-])ccc1NCCCc1ccccc1 [NPPB] | negligible effect on Rt | depolarization caused by NPPB was slower to develop and greater in magnitude | Neither agent affected ΔP |  |  |  |
| [Cl-].[Na+] [NaCl] | decreased Rt | depolarization | relaxation |  |  |  |
| C[C@@H]1O[C@@H](O[C@H]2C[C@@H](O)[C@]3(CO)[C@H]4[C@H](O)C[C@]5(C)[C@@H](C6=CC(=O)OC6)CC[C@]5(O)[C@@H]4CC[C@]3(O)C2)[C@H](O)[C@H](O)[C@H]1O [Ouabain] | decrease in Rt | immediate depolarization | delayed contraction of the trachea | complete |  |  |
| CC(C)(C)NCC(O)c1cc(O)cc(O)c1 (centres unmarked) [Terbutaline] | did not effect Rt | transient depolarization in three of the four preparations followed by slow hyperpolarization | relaxation | did not effect Vt appreciably |  |  |
| N=C(N)NC(=O)c1nc(Cl)c(N)nc1N [amiloride, Amiloride] | increase in Rt | depolarization of the epithelium | Neither agent affected ΔP |  |  |  |
| CC(=O)OC(C)C[N+](C)(C)C (centres unmarked) [methacholine] |  |  |  |  | induced transepithelial hyperpolarization | 6.52 |

Source: patent US7907999B2, “Apparatus and method for measuring physiological characteristics of an intact trachea in vitro” (priority 2006, dated 2011)
